Assay results as given in ChEMBL document CHEMBL4402541, “β-Lactamase Inhibitors To Restore the Efficacy of Antibiotics against Superbugs” (J Med Chem, 2020).
pIC50, pKi: −log10 of the molar value. In brackets after ≈: the same amount, converted by molar mass. One block for each compound: values may come before it.

Legend:
Pseudomonas aeruginosa [1] = assay: Inhibition of Pseudomonas aeruginosa KPC-2 assessed as potentiation of piperacillin-induced antibacterial activity at 4 ug/ml by CLSI based broth microdilution method (reference value: > […] ug/ml)
Pseudomonas aeruginosa [2] = assay: Inhibition of Pseudomonas aeruginosa AmpC assessed as potentiation of piperacillin-induced antibacterial activity at 4 ug/ml by CLSI based broth microdilution method (reference value: > […] ug/ml)
Pseudomonas aeruginosa [3] = assay: Inhibition of Pseudomonas aeruginosa OXA-24/40 assessed as potentiation of piperacillin-induced antibacterial activity at 4 ug/ml by CLSI based broth microdilution method (reference value: > […] ug/ml)
[4] = Inhibition of NDM1 (unknown origin) using nitrocefin as substrate incubated for 10 mins by UV spectra analysis; design: species or system Bacteria
[5] = Inhibition of Acinetobacter baumannii OXA-24 by spectrophotometric method
Acinetobacter baumannii [6] = assay: Inhibition of OXA-24/40 in Acinetobacter baumannii assessed as potentiation of imipenem-induced antibacterial activity by CLSI based broth microdilution method
[7] = system: Beta-lactamase (Acinetobacter baumannii), Q8RLA6 [Y112A]; assay: Inhibition of Acinetobacter baumannii OXA-24 Y112A mutant by spectrophotometric method relative to control; conditions: concentration not given here
[8] = system: Beta-lactamase (Acinetobacter baumannii), Q8RLA6 [Y112A,M223A]; assay: Inhibition of Acinetobacter baumannii OXA-24 Y112A/M223A mutant by spectrophotometric method relative to control; conditions: concentration not given here
Acinetobacter baumannii [9] = assay: Antibacterial activity against Acinetobacter baumannii JC12/04 clinical isolate harboring OXA-24/40 infected in BALB/c mouse pneumonia model assessed as reduction in bacterial burden by measuring bacterial growth at 50 mg,kg, im after 22 hrs co-treatment with imipenem; assay type: functional
Acinetobacter baumannii [10] = assay: Antibacterial activity against Acinetobacter baumannii Ab1 clinical isolate harboring OXA-23 infected in BALB/c mouse pneumonia model assessed as reduction in bacterial burden by measuring bacterial growth at 50 mg,kg, im after 22 hrs co-treatment with imipenem; assay type: functional
Acinetobacter baumannii [11] = assay: Inhibition of Acinetobacter baumannii OXA-24 by spectrophotometry relative to control; conditions: concentration not given here
Acinetobacter baumannii [12] = assay: Antibacterial activity against Acinetobacter baumannii ATCC 17978 harboring OXA-23 infected in BALB/c mouse pneumonia model assessed as reduction in bacterial burden by measuring bacterial growth at 50 mg,kg, im after 22 hrs co-treatment with imipenem; assay type: functional
Acinetobacter baumannii [13] = assay: Inhibition of OXA-24/40 in Acinetobacter baumannii assessed as potentiation of meropenem-induced antibacterial activity by CLSI based broth microdilution method
Acinetobacter baumannii [14] = assay: Antibacterial activity against Acinetobacter baumannii ATCC 17978 harboring OXA-24/40 infected in BALB/c mouse pneumonia model assessed as reduction in bacterial burden by measuring bacterial growth at 50 mg,kg, im after 22 hrs co-treatment with imipenem; assay type: functional
[15] = Inhibition of AmpC beta-lactamase (unknown origin) by Cheng-Prusoff equation analysis; design: species or system Bacteria
Beta-lactamase TEM = Beta-lactamase TEM (Escherichia coli, UniProt P62593); assay: Inhibition of Escherichia coli TEM-1 beta-lactamase
Klebsiella pneumoniae [16] = assay: Potentiation of cefepime-induced antibacterial activity against Klebsiella pneumoniae at 8 ug/ml by CLSI based microdilution method; assay type: functional
Escherichia coli [17] = assay: Potentiation of cefepime-induced antibacterial activity against Escherichia coli at 8 ug/ml by CLSI based microdilution method; assay type: functional
Escherichia coli [18] = assay: Antibacterial activity against Escherichia coli harboring beta-lactamase infected in mouse relative to control; assay type: functional
Acinetobacter baumannii [19] = assay: Inhibition of Acinetobacter baumannii PBP2 assessed as ratio of Kinact to Ki by SDS-PAGE based fluorescence assay
Escherichia coli [20] = assay: Inhibition of Escherichia coli PBP2 assessed as ratio of Kinact to Ki by SDS-PAGE based fluorescence assay
Klebsiella pneumoniae [21] = assay: Antibacterial activity against Klebsiella pneumoniae by CLSI based microdilution method
Escherichia coli [22] = assay: Antibacterial activity against Escherichia coli by CLSI based microdilution method
Staphylococcus = assay: Antibacterial activity against methicillin-sensitive Staphylococcus; assay type: functional
Enterobacteriaceae [23] = assay: Inhibition of Beta-lactamase OXA-48 in Enterobacteriaceae assessed as potentiation of meropenem-induced antibacterial activity by CLSI based agar dilution method
Enterobacteriaceae [24] = assay: Inhibition of OXA-181 in Enterobacteriaceae assessed as potentiation of meropenem-induced antibacterial activity by CLSI based agar dilution method
Enterobacteriaceae [25] = assay: Inhibition of OXA-181 in Enterobacteriaceae assessed as potentiation of imipenem-induced antibacterial activity by CLSI based agar dilution method
Enterobacteriaceae [26] = assay: Inhibition of Beta-lactamase OXA-48 in Enterobacteriaceae assessed as potentiation of imipenem-induced antibacterial activity by CLSI based agar dilution method
Enterobacteriaceae [27] = assay: Inhibition of Beta-lactamase KPC in Enterobacteriaceae assessed as potentiation of meropenem-induced antibacterial activity by CLSI based agar dilution method
Enterobacteriaceae [28] = assay: Inhibition of Beta-lactamase KPC in Enterobacteriaceae assessed as potentiation of imipenem-induced antibacterial activity by CLSI based agar dilution method
Pseudomonas aeruginosa [29] = assay: Antibacterial activity against Pseudomonas aeruginosa haboring OXA-24/40 assessed as reduction in microbial growth by CLSI based broth microdilution method; assay type: functional
Pseudomonas aeruginosa [30] = assay: Antibacterial activity against Pseudomonas aeruginosa haboring KPC-2 assessed as reduction in microbial growth by CLSI based broth microdilution method; assay type: functional
Pseudomonas aeruginosa [31] = assay: Antibacterial activity against Pseudomonas aeruginosa haboring AmpC assessed as reduction in microbial growth by CLSI based broth microdilution method; assay type: functional

Chain of Beta-lactamase (Acinetobacter baumannii), Q8RLA6 [Y112A,M223A] (Q8RLA6 whole entry Y112A/M223A): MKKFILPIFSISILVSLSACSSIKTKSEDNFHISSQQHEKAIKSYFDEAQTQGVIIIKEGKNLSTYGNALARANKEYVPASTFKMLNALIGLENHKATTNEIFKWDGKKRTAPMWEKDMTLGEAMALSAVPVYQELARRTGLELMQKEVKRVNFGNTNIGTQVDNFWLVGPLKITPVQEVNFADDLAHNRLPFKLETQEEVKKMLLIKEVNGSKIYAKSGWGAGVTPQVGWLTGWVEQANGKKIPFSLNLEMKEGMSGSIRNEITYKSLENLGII
Chain of Beta-lactamase (Acinetobacter baumannii), Q8RLA6 [Y112A] (Q8RLA6 whole entry Y112A): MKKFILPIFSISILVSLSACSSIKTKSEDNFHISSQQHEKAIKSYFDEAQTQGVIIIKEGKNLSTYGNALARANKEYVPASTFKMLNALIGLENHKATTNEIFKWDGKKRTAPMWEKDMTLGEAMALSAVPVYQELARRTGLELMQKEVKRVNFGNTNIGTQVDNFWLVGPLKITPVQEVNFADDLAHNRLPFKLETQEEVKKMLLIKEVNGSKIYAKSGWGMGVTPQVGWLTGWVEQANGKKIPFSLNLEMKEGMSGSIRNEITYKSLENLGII
Chain of Beta-lactamase TEM (P62593 whole entry): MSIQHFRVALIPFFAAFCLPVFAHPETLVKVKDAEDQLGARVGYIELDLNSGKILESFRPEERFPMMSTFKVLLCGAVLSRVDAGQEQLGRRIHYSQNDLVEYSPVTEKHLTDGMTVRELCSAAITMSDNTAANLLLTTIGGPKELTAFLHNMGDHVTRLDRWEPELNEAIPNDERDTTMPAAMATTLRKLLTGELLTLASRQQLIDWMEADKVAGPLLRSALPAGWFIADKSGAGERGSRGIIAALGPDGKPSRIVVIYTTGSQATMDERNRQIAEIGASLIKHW

Structure (SMILES): N[C@H](CN[C@H](CN[C@@H](CC(=O)O)C(=O)O)C(=O)O)C(=O)O
pIC50 [4]: 4.99

Structure (SMILES): C[C@]1(COC(=O)Cc2ccc(O)c(O)c2)[C@H](C(=O)O)N2C(=O)/C(=C/c3ccccn3)[C@H]2S1(=O)=O
pKi [5]: 6.15 | MIC (Acinetobacter baumannii [6]): 1 µg/mL | inhibition [7]: 100% | inhibition [8]: 100% | Activity (Acinetobacter baumannii [9]): 4.5 log10CFU/g | Activity (Acinetobacter baumannii [10]): 1.7 log10CFU/g | inhibition (Acinetobacter baumannii [11]): 100% | Activity (Acinetobacter baumannii [12]): 4 log10CFU/g | MIC (Acinetobacter baumannii [13]): 1 µg/mL | Activity (Acinetobacter baumannii [14]): 2.5 log10CFU/g

Structure (SMILES): O=C(NCB(O)O)S(=O)(=O)c1cc(Cl)cc(-c2nnn[nH]2)c1
pKi [15]: 9.70

Structure (SMILES): CC(=O)N[C@@H](Cc1cccc(C(=O)O)c1)B(O)O
pKi (Beta-lactamase TEM): 6.96

Structure (SMILES): N[C@H](CN[C@@H](CN[C@@H](CC(=O)O)C(=O)O)C(=O)O)C(=O)O
pIC50 [4]: 4.92

Structure (SMILES): N[C@@H](CN[C@@H](CN[C@H](CC(=O)O)C(=O)O)C(=O)O)C(=O)O
pIC50 [4]: 4.94

Structure (SMILES): O=C(NCB(O)O)S(=O)(=O)c1cc(-c2nnn[nH]2)cc(C(F)(F)F)c1
pKi [15]: 10.30

Structure (SMILES): O=C(NCB(O)O)S(=O)(=O)c1ccnc(-c2nnn[nH]2)c1
Activity (Escherichia coli [18]): 65% | pKi [15]: 9.10

Structure (SMILES): CO/N=C(\C(=O)N[C@@H]1C(=O)N2C(C(=O)[O-])=C(C[N+]3(C)CCCC3)CS[C@H]12)c1csc(N)n1 [CEFEPIME]
MIC90 (Klebsiella pneumoniae [21]): 16 µg/mL (≈ 33.3 µM) | MIC90 (Escherichia coli [22]): > 64 µg/mL

Structure (SMILES): C[C@]1(Cn2ccnn2)[C@H](C(=O)O)N2C(=O)C[C@H]2S1(=O)=O
MIC (Acinetobacter baumannii [6]): 16 µg/mL | MIC (Acinetobacter baumannii [13]): 16 µg/mL

Structure (SMILES): N[C@@H](CN[C@@H](CN[C@@H](CC(=O)O)C(=O)O)C(=O)O)C(=O)O
pIC50 [4]: 5.03

Structure (SMILES): N[C@@H](CN[C@H](CN[C@@H](CC(=O)O)C(=O)O)C(=O)O)C(=O)O
pIC50 [4]: 4.90

Further lines, results first:

MIC (Pseudomonas aeruginosa [1]): 64 µg/mL | MIC (Pseudomonas aeruginosa [2]): > 64 µg/mL | MIC (Pseudomonas aeruginosa [3]): 8 µg/mL
Structure (SMILES): CC1=C[C@@H](C#N)N2C[C@@H]1N(OS(=O)(=O)O)C2=O

MIC (Pseudomonas aeruginosa [1]): 4 µg/mL | MIC (Pseudomonas aeruginosa [2]): 8 µg/mL | MIC (Pseudomonas aeruginosa [3]): 16 µg/mL
Structure (SMILES): CC1=C[C@@H](C(N)=O)N2C[C@@H]1N(OS(=O)(=O)O)C2=O

MIC90 (Klebsiella pneumoniae [16]): 1 µg/mL | MIC90 (Escherichia coli [17]): 0.5 µg/mL
Structure (SMILES): Cn1cc[n+](C[C@@]2(C)[C@H](C(=O)[O-])N3C(=O)C[C@H]3S2(=O)=O)n1 [ENMETAZOBACTAM]

MIC (Pseudomonas aeruginosa [1]): 8 µg/mL | MIC (Pseudomonas aeruginosa [2]): 32 µg/mL | MIC (Pseudomonas aeruginosa [3]): 64 µg/mL
Structure (SMILES): CC1=C[C@@H](CO)N2C[C@@H]1N(OS(=O)(=O)O)C2=O

MIC (Pseudomonas aeruginosa [1]): > 64 µg/mL | MIC (Pseudomonas aeruginosa [2]): > 64 µg/mL | MIC (Pseudomonas aeruginosa [3]): > 64 µg/mL
Structure (SMILES): C=C(C)C1=C[C@@H](COC)N2C[C@@H]1N(OS(=O)(=O)O)C2=O

MIC (Pseudomonas aeruginosa [1]): 4 µg/mL | Ratio (Acinetobacter baumannii [19]): 1 ×10³ /M/s | Ratio (Escherichia coli [20]): 1 ×10⁴ /M/s | MIC (Pseudomonas aeruginosa [2]): 2 µg/mL | MIC (Pseudomonas aeruginosa [3]): 8 µg/mL
Structure (SMILES): CC1=C[C@@H]2CN(C(=O)N2OS(=O)(=O)O)[C@@H]1C(N)=O

MIC (Pseudomonas aeruginosa [1]): 8 µg/mL | MIC (Pseudomonas aeruginosa [2]): 8 µg/mL | MIC (Pseudomonas aeruginosa [3]): 64 µg/mL
Structure (SMILES): NC(=O)[C@@H]1CC[C@@H]2CN1C(=O)N2OS(=O)(=O)O

MIC (Staphylococcus): 1 µg/mL (≈ 3.78 µM)
Structure (SMILES): Cn1cc(/C=C2/C(=O)N3C(C(=O)O)=CS[C@H]23)nn1

MIC (Enterobacteriaceae [23]): < 2 µg/mL | MIC (Enterobacteriaceae [24]): < 2 µg/mL | MIC (Enterobacteriaceae [25]): < 2 µg/mL | MIC (Enterobacteriaceae [26]): < 2 µg/mL | MIC (Enterobacteriaceae [27]): < 2 µg/mL | MIC (Enterobacteriaceae [28]): < 2 µg/mL
Structure (SMILES): N#C[C@@H]1CC[C@@H]2CN1C(=O)N2OS(=O)(=O)O

MIC (Pseudomonas aeruginosa [29]): > 64 µg/mL | MIC (Pseudomonas aeruginosa [30]): > 64 µg/mL | MIC (Pseudomonas aeruginosa [31]): > 64 µg/mL
Structure (SMILES): CCN1CCN(C(=O)N[C@@H](C(=O)N[C@@H]2C(=O)N3[C@@H]2SC(C)(C)[C@@H]3C(=O)O)c2ccccc2)C(=O)C1=O [PIPERACILLIN]
